Active and inactive are the calls of the source. The rule behind the calls is not given here.
Tests used:
[1] = system: Mus musculus; assay: Acute toxicity in mouse up to 1000 mg/kg, ip qd administered for 2 weeks; format: organism-based; design: dose 1000 mg/kg, route intraperitoneal; conditions: in vivo, 336 h
[2] = target: Vascular endothelial growth factor receptor 3 (Homo sapiens, UniProt P35916); assay: Inhibition of recombinant FLT4 (unknown origin) after 60 mins by z'-lyte kinase assay
[3] = target: Platelet-derived growth factor receptor alpha (Homo sapiens, UniProt P16234); assay: Inhibition of recombinant PDGFR alpha (unknown origin) after 60 mins by z'-lyte kinase assay
Sequence of Platelet-derived growth factor receptor alpha (P16234 whole entry): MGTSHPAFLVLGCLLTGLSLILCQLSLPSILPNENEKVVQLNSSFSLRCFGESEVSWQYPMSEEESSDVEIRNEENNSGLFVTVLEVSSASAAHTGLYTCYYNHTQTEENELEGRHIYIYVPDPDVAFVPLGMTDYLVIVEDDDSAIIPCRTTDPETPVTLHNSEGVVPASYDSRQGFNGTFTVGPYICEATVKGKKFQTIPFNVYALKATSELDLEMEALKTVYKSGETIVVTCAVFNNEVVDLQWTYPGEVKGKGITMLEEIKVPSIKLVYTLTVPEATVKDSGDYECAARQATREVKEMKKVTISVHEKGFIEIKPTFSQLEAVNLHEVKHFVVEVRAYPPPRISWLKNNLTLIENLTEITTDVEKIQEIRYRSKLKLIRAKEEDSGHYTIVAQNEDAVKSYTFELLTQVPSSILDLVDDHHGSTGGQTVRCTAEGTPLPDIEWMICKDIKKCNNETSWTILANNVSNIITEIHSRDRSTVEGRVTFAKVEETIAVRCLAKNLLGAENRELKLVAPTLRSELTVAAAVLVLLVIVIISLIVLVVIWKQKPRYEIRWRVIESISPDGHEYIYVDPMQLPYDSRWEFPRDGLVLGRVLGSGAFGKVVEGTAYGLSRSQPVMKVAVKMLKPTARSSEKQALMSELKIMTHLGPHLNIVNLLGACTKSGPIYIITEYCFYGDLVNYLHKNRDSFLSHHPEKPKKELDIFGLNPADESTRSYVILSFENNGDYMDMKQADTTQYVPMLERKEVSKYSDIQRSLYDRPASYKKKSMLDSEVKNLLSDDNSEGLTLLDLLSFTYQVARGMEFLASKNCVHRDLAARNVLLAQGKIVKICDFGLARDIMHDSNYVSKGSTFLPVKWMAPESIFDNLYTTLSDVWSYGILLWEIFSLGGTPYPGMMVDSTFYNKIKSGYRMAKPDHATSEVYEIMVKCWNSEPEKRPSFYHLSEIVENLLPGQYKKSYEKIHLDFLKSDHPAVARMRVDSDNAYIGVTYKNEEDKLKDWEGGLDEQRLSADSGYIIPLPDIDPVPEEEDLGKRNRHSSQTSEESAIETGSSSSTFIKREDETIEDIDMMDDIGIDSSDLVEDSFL

[4] = system: SMMC-7721; assay: Cytotoxicity against human SMMC7721 cells after 96 hrs by CCK-8 assay; format: functional, cell-based; conditions: SMMC-7721, 96 h
[5] = target: T1, Aurora kinase B (Homo sapiens, UniProt Q96GD4); assay: Inhibition of AURKB in human SW620 cells assessed as reduction in histone H3 expression at 5 to 20 uM after 48 hrs by Western blotting analysis; format: cell-based; conditions: SW-620
T1 sequence (Q96GD4 whole entry): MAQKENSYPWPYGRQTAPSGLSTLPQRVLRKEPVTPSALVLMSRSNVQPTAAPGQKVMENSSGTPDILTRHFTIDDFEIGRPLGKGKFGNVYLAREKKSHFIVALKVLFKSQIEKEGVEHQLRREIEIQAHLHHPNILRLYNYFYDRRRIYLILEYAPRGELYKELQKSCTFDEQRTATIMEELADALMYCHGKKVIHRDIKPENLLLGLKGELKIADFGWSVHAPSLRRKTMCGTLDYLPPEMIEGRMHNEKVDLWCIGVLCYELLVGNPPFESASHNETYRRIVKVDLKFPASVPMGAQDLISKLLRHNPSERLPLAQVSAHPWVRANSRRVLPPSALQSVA

[6] = target: Serine/threonine-protein kinase Nek1 (Homo sapiens, UniProt Q96PY6); assay: Inhibition of recombinant NEK1 (unknown origin) after 60 mins by z'-lyte kinase assay
Sequence of Serine/threonine-protein kinase Nek1 (Q96PY6 whole entry): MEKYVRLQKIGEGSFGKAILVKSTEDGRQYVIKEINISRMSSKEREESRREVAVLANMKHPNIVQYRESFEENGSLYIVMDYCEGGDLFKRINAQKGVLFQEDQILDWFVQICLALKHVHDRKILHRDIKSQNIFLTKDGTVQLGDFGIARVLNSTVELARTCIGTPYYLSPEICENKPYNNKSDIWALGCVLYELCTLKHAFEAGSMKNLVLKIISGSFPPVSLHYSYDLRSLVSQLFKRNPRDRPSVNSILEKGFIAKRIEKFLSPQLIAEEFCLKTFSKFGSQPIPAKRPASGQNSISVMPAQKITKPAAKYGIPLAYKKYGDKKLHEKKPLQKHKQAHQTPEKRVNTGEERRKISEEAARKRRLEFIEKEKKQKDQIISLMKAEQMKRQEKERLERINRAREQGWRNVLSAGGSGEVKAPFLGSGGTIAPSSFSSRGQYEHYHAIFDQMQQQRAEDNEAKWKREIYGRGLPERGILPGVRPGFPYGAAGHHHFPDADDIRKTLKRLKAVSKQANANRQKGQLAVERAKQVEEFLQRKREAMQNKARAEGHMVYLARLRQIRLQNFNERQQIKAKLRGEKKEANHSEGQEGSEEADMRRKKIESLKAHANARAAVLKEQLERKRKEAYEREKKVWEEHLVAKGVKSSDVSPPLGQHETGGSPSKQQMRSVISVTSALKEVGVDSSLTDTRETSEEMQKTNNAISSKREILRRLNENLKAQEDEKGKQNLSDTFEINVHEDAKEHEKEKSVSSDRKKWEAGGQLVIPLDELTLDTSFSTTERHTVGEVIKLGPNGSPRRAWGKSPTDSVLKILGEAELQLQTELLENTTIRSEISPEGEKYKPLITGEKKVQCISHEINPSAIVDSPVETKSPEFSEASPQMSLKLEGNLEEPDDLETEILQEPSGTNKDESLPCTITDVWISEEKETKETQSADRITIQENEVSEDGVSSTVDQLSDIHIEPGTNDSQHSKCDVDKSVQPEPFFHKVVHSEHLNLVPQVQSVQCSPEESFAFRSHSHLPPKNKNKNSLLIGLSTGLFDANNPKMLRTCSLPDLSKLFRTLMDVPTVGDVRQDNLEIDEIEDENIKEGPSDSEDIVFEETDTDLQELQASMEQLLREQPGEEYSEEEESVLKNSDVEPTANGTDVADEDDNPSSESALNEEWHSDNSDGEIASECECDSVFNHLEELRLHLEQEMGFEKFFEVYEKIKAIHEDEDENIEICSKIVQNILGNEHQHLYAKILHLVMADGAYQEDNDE

[7] = target: Aurora kinase C (Homo sapiens, UniProt Q9UQB9); assay: Inhibition of recombinant AURKC (unknown origin) after 60 mins by z'-lyte kinase assay
Sequence of Aurora kinase C (Q9UQB9 whole entry): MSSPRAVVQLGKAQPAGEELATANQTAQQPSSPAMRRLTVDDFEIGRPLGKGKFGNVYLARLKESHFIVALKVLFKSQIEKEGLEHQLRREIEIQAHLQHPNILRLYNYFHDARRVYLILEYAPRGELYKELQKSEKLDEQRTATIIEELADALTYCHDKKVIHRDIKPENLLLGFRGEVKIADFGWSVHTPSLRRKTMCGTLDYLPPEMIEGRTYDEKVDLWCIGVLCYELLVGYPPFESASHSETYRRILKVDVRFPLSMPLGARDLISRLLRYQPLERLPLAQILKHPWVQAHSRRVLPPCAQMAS

[8] = Cytotoxicity against human HuH7 cells after 96 hrs by CCK-8 assay; format: functional, cell-based; conditions: Huh-7, 96 h
[9] = target: T1, Aurora kinase B; assay: Inhibition of AURKB in human HeLa cells assessed as reduction in histone H3 expression at 5 to 20 uM after 48 hrs by Western blotting analysis; format: cell-based
[10] = target: T1, Aurora kinase B; assay: Inhibition of recombinant AURKB (unknown origin) after 60 mins by z'-lyte kinase assay
[11] = target: RAC-alpha serine/threonine-protein kinase (Homo sapiens, UniProt P31749); assay: Inhibition of recombinant AKT1 (unknown origin) after 60 mins by z'-lyte kinase assay
Sequence of RAC-alpha serine/threonine-protein kinase (P31749 whole entry): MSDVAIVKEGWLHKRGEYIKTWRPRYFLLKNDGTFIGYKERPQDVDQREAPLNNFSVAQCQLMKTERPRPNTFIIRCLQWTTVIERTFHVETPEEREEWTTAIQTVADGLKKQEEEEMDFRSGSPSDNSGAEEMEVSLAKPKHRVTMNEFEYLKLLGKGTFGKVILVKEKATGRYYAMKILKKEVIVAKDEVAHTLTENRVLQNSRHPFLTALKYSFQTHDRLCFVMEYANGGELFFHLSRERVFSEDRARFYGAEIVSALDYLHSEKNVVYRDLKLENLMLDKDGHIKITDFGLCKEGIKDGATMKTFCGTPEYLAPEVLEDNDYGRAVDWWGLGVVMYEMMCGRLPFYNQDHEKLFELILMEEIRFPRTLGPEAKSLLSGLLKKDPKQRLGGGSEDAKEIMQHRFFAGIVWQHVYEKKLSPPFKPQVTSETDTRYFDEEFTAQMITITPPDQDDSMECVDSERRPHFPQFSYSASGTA

[12] = Cytotoxicity against human PANC1 cells after 96 hrs by CCK-8 assay; format: functional, cell-based; conditions: PANC-1, 96 h
[13] = target: Mitogen-activated protein kinase 1 (Homo sapiens, UniProt P28482); assay: Inhibition of recombinant MAPK1 (unknown origin) after 60 mins by z'-lyte kinase assay
Sequence of Mitogen-activated protein kinase 1 (P28482 whole entry): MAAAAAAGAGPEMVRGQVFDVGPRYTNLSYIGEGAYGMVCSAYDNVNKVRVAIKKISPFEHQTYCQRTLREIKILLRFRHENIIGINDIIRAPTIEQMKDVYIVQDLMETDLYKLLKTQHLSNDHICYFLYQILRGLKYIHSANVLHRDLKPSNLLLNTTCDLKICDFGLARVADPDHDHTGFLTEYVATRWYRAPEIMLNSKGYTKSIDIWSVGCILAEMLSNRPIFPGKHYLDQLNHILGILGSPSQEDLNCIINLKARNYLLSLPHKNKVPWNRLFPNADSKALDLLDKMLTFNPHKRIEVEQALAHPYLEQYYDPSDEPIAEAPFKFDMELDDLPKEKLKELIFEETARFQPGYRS

[14] = Cytotoxicity against human HCT116 cells after 96 hrs by CCK-8 assay; format: functional, cell-based; conditions: HCT-116, 96 h
[15] = target: T1, Aurora kinase B; assay: Inhibition of AURKB in human SW620 cells assessed as reduction in Aurora B expression expression at 5 to 20 uM after 48 hrs by Western blotting analysis; format: cell-based; conditions: SW-620
[16] = system: HepG2; assay: Inhibition of colony formation in human HepG2 cells at 5 uM after 96 hrs by crystal violet staining-based assay; format: functional, cell-based
[17] = system: SW480; assay: Cytotoxicity against human SW480 cells after 96 hrs by CCK-8 assay; format: functional, cell-based; conditions: SW480, 96 h
[18] = system: CNE; assay: Cytotoxicity against human CNE cells after 96 hrs by CCK-8 assay; format: functional, cell-based
[19] = Cytotoxicity against human SKOV3 cells after 96 hrs by CCK-8 assay; format: functional, cell-based; conditions: SK-OV-3, 96 h
[20] = system: HeLa; assay: Cell cycle arrest in human HeLa cells assessed as accumulation at G2/M phase at 20 uM after 48 hrs by flow cytometry relative to control; format: functional
[21] = system: HepG2; assay: Growth inhibition of human HepG2 cells at 5 to 20 uM after 96 hrs by CCK-8 assay; format: functional, cell-based
[22] = system: Homo sapiens; assay: Inhibition of histone H3 phosphorylation in human QGY7401 cells xenografted in nude mouse at 10 to 20 mg/kg, ip qd administered for 14 days by hematoxylin and eosin staining-based microscopic analysis; format: functional, organism-based
[23] = target: T1, Aurora kinase B; assay: Inhibition of AURKB in human HepG2 cells assessed as reduction in histone H3 phosphorylation at 20 uM after 48 hrs by Western blotting analysis; format: cell-based
[24] = target: T1, Aurora kinase B; assay: Inhibition of AURKB in human SW620 cells assessed as reduction in histone H3 phosphorylation at 5 to 20 uM after 48 hrs by Western blotting analysis; format: cell-based; conditions: SW-620
[25] = target: Vascular endothelial growth factor receptor 1 (Homo sapiens, UniProt P17948); assay: Inhibition of recombinant FLT1 (unknown origin) after 60 mins by z'-lyte kinase assay
[26] = system: HeLa; assay: Cytotoxicity against human HeLa cells after 96 hrs by CCK-8 assay; format: functional, cell-based
[27] = system: MDA-MB-231; assay: Cytotoxicity against human MDA-MB-231 cells after 96 hrs by CCK-8 assay; format: functional, cell-based; conditions: MDA-MB-231, 96 h
[28] = Antitumor activity against human QGY7401 cells xenografted in nude mouse assessed as reduction in tumor weight at 10 mg/kg, ip qd administered for 14 days measured on day 18 (reference value: 2.24 +/- 0.20 g); format: functional; conditions: route intraperitoneal
[29] = system: HepG2; assay: Cell cycle arrest in human HepG2 cells assessed as reduction in G1 phase at 20 uM after 48 hrs by flow cytometry relative to control; format: functional, cell-based
[30] = system: LoVo; assay: Cytotoxicity against human LoVo cells after 96 hrs by CCK-8 assay; format: functional, cell-based
[31] = Antitumor activity against human QGY7401 cells xenografted in nude mouse assessed as inhibition of tumor growth at 20 mg/kg, ip qd administered for 14 days measured on day 18 relative to control; format: functional; conditions: route intraperitoneal, read-out: TGI
[32] = Cytotoxicity against human Hep3B cells after 96 hrs by CCK-8 assay; format: functional, cell-based, Hep 3B2
[33] = Cytotoxicity against human QGY7401 cells after 96 hrs by CCK-8 assay; format: functional, cell-based
[34] = Cytotoxicity against human CaSki cells after 96 hrs by CCK-8 assay; format: functional, cell-based; conditions: Ca-Ski

O=C1/C(=C\c2ccc(O)c(O)c2)Oc2ccccc21
Activity [1]: Non-toxic | IC50 [2]: 5.19 µM | IC50 [3]: 4.04 µM | IC50 [4]: 20.3 µM | inhibition [5]: Active | IC50 [6]: 11.5 µM | IC50 [7]: 4.75 µM | IC50 [8]: 21.1 µM | inhibition [9]: Active | IC50 [10]: 0.735 µM | IC50 [11]: 38.6 µM | IC50 [12]: 36.5 µM | IC50 [13]: 100 µM | IC50 [14]: 13.4 µM | inhibition [15]: Active | inhibition [16]: Active | IC50 [17]: 50 µM | IC50 [18]: 45.5 µM | IC50 [19]: 26.1 µM | Ratio [20]: 1.3 | growth inhibition (GI) [21]: Active | inhibition [22]: Active | inhibition [23]: Active | inhibition [24]: Active | IC50 [25]: 3.7 µM | IC50 [26]: 13.4 µM | IC50 [27]: > 50 µM | Activity [28]: 1.71 g | Activity [29]: Active | IC50 [30]: > 50 µM | inhibition in vivo at 20 mg/kg [31]: 48.1% | IC50 [32]: 28.7 µM | IC50 [33]: 19.8 µM | IC50 [34]: > 50 µM

Reference: ChEMBL document CHEMBL3351909, “In vitro and in vivo characterization of a benzofuran derivative, a potential anticancer agent, as a novel Aurora B kinase inhibitor” (Eur J Med Chem, 2015)
